Reference: ChEMBL document CHEMBL1201862, “PubChem BioAssay data set” (2004)
Active and inactive are the calls of the source.

Legend:
[1] = Luminescence Cell-Based Dose Retest to Confirm Inhibitors of Cancer Stem Cells. [Related pubchem assays (depositor defined):AID2717, AID2721]; assay type: functional; conditions: Homo sapiens
[2] = viability loss of HMLE_sh_eGFP cells – cell-based, luminescence, counter-screen for HMLE_sh_ECad selective toxicity project, dose response (AID 463074); assay type: functional, Homo sapiens;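 note: HMLE human mammary epithelial cells expressing control shRNA against eGFP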
HEK293 [3] = experiment: inhibition of NOD1-driven NF-kB reporter – cell-based, luminescence, uHTS, primary screen (AID 1578); assay type: functional; conditions: Homo sapiens
HEK293 [4] = experiment: cells; assay type: functional, cell-based; conditions: Homo sapiens
HEK293 [5] = experiment: NOD2 signaling inhibitors in MDP-stimulated cells, cell-based, uHTS, luminescence (AID 2001); assay type: functional; conditions: Homo sapiens
HEK293 [6] = experiment: cells; assay type: functional, cell-based; conditions: Homo sapiens; remark: listed apart in the source
[7] = target: T1, Lysosomal acid glucosylceramidase (Homo sapiens, UniProt P04062); experiment: Dose response cell-based high throughput screening assay to identify enhancers of beta-glucosidase activity. [Related pubchem assays: 784 ]; assay type: functional
T1 sequence (P04062 whole entry): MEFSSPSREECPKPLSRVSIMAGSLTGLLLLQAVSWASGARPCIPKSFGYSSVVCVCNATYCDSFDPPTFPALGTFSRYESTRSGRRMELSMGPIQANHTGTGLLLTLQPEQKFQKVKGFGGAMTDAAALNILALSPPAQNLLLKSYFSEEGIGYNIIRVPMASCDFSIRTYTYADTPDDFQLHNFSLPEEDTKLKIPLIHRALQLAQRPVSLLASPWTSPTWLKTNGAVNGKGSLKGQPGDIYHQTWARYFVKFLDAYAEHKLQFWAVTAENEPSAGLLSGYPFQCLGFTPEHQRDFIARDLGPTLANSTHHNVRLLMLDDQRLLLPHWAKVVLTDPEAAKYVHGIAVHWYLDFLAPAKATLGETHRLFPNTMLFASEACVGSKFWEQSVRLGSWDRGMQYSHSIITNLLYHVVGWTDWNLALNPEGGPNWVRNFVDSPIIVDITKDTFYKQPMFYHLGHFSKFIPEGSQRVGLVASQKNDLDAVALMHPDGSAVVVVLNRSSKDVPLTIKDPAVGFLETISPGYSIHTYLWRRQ

Coagulation factor XII = target: T2, Coagulation factor XII (Homo sapiens, UniProt P00748); assay type: functional;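 note: activated factor XIIa alpha cleaving a fluorogenic AMC peptide substrate; inhibitor potency from loss of enzyme activity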
T2 sequence (P00748 whole entry): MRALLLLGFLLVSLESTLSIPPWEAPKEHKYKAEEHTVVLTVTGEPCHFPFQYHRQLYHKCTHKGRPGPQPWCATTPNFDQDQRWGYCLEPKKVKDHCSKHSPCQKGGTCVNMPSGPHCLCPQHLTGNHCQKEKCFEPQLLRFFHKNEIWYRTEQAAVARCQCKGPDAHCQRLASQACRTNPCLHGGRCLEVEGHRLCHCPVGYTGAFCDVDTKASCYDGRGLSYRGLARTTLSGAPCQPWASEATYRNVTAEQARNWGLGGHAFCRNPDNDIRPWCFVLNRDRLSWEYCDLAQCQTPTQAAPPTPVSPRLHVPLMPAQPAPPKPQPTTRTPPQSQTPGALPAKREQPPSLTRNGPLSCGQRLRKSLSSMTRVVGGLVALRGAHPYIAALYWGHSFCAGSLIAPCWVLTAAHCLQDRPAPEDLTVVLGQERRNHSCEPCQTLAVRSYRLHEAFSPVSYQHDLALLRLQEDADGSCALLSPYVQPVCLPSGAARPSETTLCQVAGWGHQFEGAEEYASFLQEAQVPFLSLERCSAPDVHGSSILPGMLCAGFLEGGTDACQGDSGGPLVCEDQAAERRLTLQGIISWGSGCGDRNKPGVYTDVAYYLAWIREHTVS

[8] = target: 26S proteasome non-ATPase regulatory subunit 14 (Homo sapiens, UniProt O00487); experiment: inhibition of proteasome subunit RPN11 – biochemical, fluorescence polarization, uHTS hits, confirmation (AID 602368); assay type: functional
Chain of 26S proteasome non-ATPase regulatory subunit 14 (O00487 whole entry): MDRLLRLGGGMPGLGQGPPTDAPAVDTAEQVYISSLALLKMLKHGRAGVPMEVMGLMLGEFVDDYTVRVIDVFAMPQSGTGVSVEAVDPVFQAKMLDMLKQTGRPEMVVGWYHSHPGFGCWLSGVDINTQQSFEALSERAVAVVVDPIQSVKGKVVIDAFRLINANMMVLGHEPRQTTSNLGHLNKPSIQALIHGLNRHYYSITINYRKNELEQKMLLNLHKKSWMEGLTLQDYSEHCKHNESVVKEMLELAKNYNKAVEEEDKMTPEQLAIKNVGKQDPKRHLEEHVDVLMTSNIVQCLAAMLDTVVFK

[9] = target: 72 kDa type IV collagenase (Homo sapiens, UniProt P08253); experiment: Dose Response validation of uHTS RPN11 inhibitor hits using a MMP-2 Fluorescence assay.; assay type: functional
Chain of 72 kDa type IV collagenase (P08253 whole entry): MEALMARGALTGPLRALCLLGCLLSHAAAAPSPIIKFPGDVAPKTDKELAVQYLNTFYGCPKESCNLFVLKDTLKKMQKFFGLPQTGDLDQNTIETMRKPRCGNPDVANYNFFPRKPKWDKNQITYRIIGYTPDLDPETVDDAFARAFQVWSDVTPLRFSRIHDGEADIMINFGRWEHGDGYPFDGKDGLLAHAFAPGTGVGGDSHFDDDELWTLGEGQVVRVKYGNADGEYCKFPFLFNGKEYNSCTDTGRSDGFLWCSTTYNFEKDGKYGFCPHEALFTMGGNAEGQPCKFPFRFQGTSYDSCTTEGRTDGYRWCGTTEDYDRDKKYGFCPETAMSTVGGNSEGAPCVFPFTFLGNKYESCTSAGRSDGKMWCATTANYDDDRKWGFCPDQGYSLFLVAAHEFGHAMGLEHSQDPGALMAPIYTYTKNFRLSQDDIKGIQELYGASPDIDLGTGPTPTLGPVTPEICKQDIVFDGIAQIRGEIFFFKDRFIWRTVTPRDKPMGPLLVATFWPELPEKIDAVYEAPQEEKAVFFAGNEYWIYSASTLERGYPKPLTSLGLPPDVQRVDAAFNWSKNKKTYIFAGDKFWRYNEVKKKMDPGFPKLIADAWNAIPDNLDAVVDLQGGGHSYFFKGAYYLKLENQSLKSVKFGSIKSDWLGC

Large T antigen = Large T antigen (Simian virus 40, UniProt P03070); assay type: functional, Betapolyomavirus macacae;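 note: Confirmatory-stage PubChem screen for compounds that inhibit SV40 T antigen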
Chain of Large T antigen (P03070 whole entry): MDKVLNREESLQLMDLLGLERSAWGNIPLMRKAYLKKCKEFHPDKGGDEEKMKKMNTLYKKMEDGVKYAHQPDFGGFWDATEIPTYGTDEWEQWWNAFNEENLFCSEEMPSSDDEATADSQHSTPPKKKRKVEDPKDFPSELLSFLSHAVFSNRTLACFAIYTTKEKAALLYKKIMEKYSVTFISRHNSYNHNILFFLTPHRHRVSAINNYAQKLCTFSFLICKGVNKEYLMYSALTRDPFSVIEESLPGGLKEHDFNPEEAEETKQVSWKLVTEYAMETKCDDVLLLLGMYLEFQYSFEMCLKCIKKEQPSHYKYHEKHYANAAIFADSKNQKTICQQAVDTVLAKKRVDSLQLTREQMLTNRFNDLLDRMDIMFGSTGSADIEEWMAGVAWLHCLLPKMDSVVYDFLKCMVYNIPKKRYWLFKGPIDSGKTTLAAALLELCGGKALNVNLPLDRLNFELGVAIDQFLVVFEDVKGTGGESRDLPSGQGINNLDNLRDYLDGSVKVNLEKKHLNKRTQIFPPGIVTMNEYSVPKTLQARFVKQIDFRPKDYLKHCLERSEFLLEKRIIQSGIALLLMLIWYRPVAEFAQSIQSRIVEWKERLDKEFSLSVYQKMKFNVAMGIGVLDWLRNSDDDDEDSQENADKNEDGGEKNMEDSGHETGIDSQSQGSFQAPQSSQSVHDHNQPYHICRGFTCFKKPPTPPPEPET

Prothrombin = Prothrombin (Bos taurus, UniProt P00735); experiment: thrombin protease inhibitors – biochemical, fluorescence polarization, uHTS hits, dose response (AID 602369); assay type: functional
Streptokinase A = target: T3, Streptokinase A (Streptococcus pyogenes serotype M1, UniProt P10520); experiment: viability-normalized secreted streptokinase activity reduction – plasminogen activation absorbance, OD405, dose response (AID 1914); assay type: functional, Streptococcus pyogenes M1 GAS;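 note: secreted streptokinase activity via plasminogen activation per viability signal from cell pellet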
T3 sequence (P10520 whole entry): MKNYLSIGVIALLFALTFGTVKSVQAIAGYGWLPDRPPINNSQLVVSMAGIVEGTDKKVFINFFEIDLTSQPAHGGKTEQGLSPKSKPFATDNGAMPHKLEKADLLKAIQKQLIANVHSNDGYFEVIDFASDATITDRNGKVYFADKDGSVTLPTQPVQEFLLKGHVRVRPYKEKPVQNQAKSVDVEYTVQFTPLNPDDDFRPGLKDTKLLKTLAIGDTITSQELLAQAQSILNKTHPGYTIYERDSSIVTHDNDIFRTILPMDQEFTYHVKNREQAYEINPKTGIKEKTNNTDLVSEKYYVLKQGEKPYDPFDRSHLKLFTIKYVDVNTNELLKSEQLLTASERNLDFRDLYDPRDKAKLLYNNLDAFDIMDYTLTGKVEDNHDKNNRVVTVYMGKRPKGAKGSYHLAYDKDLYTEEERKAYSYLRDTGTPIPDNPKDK

Streptococcus = experiment: GAS UMAA2166 growth inhibition – luminescence, BacTiterGlo, counter-screen for streptokinase expression inhibitor project, dose response (AID 1915); assay type: functional, organism-based;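 note: potency for reduction of bacterial viability or growth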
[10] = system: Streptococcus sp. 'group A'; experiment: Streptococcus pyogenes SK(-)GAS viability under kanamycin – luminescence, BacTiterGlo, confirmation, counter-screen for streptokinase expression inhibitor project, dose response (AID 1900); assay type: functional, organism-based
[11] = target: T4, Short transient receptor potential channel 4 (Mus musculus, UniProt Q9QUQ5); experiment: block of DAMGO-driven TRPC4 calcium entry – cell-based, HEK293 TRPC4/mu-opioid, Fluo-4 calcium, dose response (AID 434942); assay type: functional;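 note: potency of inhibitors blocking the TRPC4 calcium response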
T4 sequence (Q9QUQ5 whole entry): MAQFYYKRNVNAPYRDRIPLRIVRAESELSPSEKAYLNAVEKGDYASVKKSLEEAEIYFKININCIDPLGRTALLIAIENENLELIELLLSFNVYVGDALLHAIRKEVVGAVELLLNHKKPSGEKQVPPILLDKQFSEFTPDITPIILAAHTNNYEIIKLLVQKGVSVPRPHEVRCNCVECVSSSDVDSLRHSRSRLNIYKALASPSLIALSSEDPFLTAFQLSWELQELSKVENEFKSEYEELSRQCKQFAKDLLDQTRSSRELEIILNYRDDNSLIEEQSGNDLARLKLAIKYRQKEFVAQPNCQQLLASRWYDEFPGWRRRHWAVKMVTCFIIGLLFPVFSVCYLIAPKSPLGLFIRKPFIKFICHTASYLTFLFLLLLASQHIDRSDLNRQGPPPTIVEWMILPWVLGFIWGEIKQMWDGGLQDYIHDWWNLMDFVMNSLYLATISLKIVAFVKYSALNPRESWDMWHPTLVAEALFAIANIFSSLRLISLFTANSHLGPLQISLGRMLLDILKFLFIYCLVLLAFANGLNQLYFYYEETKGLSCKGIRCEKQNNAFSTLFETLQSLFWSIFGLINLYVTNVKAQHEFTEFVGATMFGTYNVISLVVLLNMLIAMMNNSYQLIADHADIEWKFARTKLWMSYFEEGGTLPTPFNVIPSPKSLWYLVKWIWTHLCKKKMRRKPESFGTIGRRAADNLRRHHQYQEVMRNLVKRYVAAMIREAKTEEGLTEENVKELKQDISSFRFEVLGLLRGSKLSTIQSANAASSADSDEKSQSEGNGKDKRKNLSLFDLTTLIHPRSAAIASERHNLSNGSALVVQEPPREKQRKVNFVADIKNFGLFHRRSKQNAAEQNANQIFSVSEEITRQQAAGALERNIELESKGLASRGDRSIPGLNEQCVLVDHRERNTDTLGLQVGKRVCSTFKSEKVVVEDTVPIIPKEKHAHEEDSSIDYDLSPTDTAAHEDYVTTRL

[12] = target: Peroxisome proliferator-activated receptor gamma/Nuclear receptor coactivator 3 (Homo sapiens, UniProt P37231); experiment: TR-FRET dose response biochemical High Throughput Screening assay for agonists of the steroid receptor coactivator 3 (SRC-3) recruitment by the peroxisome proliferator-activated receptor gamma (PPAR gamma): non-selective agonists. [Related pubchem assays: 1301 (Confirmation screen.), 1048 (Primary screen.)]; assay type: functional
[13] = target: Peroxisome proliferator-activated receptor gamma/Nuclear receptor coactivator 2 (Homo sapiens, UniProt P37231); experiment: (§1) TR-FRET dose response biochemical High Throughput Screening assay for agonists of the steroid receptor coactivator 2 (SRC-2) recruitment by the peroxisome proliferator-activated receptor gamma (PPAR gamma): non-selective agonists. [Related pubchem assays: 1297, 1032 ]; assay type: functional
[14] = target: Peroxisome proliferator-activated receptor gamma/Nuclear receptor coactivator 1 (Homo sapiens, UniProt P37231); experiment: as §1, with “1 (SRC-1)” for “2 (SRC-2)”, “assays (depositor defined):AID1300, AID1808, AID504735, AID631]” for “assays: 1297, 1032 ]”; assay type: protein assay
Chain of Peroxisome proliferator-activated receptor gamma/Nuclear receptor coactivator 1 (P37231 whole entry): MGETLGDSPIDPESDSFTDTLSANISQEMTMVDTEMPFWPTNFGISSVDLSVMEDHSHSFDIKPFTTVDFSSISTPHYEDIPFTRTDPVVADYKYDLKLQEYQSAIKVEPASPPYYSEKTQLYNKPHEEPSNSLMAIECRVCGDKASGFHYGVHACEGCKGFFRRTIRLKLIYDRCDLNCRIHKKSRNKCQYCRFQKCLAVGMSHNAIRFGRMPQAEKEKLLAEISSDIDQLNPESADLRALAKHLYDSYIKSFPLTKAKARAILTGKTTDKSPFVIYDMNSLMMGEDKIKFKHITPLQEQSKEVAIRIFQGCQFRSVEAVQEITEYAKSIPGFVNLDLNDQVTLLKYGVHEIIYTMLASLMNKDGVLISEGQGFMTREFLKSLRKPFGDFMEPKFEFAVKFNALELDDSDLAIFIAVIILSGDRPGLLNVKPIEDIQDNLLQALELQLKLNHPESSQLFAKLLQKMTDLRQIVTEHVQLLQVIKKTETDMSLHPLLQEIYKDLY
Chain of Peroxisome proliferator-activated receptor gamma/Nuclear receptor coactivator 1 (Q15788 whole entry, further chain): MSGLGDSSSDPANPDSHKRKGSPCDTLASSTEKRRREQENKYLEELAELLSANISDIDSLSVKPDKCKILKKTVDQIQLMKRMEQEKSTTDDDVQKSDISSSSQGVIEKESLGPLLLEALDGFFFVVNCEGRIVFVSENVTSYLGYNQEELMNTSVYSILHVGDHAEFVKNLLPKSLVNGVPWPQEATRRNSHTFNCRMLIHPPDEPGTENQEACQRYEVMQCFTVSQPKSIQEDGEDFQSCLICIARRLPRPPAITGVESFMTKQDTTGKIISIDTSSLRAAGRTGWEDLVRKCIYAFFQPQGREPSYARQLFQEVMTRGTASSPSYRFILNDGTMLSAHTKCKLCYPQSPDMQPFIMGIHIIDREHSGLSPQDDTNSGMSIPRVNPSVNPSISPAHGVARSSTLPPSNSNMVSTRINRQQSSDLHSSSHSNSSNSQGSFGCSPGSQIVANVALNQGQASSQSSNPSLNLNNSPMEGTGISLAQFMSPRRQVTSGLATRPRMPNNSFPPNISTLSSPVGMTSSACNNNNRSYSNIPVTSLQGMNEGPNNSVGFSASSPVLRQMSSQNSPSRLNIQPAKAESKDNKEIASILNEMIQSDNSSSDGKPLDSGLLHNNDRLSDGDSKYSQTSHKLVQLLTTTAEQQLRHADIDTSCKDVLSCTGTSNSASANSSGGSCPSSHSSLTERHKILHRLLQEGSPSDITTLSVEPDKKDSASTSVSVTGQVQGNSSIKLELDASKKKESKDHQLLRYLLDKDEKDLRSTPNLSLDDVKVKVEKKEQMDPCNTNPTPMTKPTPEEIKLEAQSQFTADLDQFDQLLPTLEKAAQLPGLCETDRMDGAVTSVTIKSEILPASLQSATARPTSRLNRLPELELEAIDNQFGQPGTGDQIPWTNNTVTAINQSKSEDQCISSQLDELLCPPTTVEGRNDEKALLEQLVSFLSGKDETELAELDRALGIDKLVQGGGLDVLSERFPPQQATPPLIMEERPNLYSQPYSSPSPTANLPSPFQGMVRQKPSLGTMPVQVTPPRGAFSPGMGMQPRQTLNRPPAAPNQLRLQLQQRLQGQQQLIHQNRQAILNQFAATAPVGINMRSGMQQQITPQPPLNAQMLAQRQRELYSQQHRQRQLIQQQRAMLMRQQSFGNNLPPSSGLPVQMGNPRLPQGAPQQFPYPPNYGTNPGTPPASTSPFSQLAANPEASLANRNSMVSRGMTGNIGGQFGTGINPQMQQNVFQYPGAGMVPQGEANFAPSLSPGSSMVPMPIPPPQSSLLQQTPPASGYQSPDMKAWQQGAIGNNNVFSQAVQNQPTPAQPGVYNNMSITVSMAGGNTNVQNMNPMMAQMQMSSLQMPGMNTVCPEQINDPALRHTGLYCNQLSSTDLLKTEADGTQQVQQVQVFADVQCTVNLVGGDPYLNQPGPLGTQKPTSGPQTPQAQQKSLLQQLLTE

[15] = DRD fibroblast viability loss – cell-based, non-viral oncogenic, luminescence, dose response (AID 1934); assay type: functional; conditions: Homo sapiens
BJ [16] = experiment: BJ-TERT fibroblast viability loss – cell-based, RAS-independent, luminescence, dose response (AID 1933); assay type: functional; conditions: Homo sapiens
BJ [17] = experiment: growth inhibition of engineered Ras-driven BJ cells – cell-based, alamar blue fluorescence, cherrypicked samples, dose response (AID 2631); assay type: functional; conditions: Homo sapiens;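 note: confirmatory dose-response assay in RAS-dependent BJ fibroblasts engineered with TERT, LT and ST, with cytotoxicity read by fluorescence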
BJ [18] = experiment: BJ-TERT-LT-ST fibroblast viability loss – cell-based, RAS-independent, luminescence, dose response (AID 1935); assay type: functional; conditions: Homo sapiens;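 note: BJ fibroblasts immortalized with TERT plus LT and ST oncogenes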
INS1 = experiment: INS-1E survival protection against cytokine death – cell-based, luminescence, retest, dose response (AID 449756); assay type: functional; conditions: Rattus norvegicus;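 note: cell death triggered by IL-1 beta plus TNF-alpha plus IFN-gamma mixture; protective hits raise ATP signal compared with cytokine alone wells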
BJ [19] = experiment: cells; assay type: functional, cell-based; conditions: Homo sapiens

Q: With `O=C(NNc1nc(-c2ccc(Cl)cc2)cs1)c1ccco1` as the molecule, how does the AC50 [1] read?
A: Its AC50 is 1.8 µM (active).

Q: What about the AC50 [2] of the same molecule?
A: Its AC50 is 87.8 µM (active).

Q: Which results are given for `CN(c1ccccc1)S(=O)(=O)c1cc(C(=O)Nc2nc3ccccc3[nH]2)ccc1Cl`?
A: EC50 (HEK293 [3]): 8.46 µM (active); IC50 (HEK293 [4]): > 20 µM (inactive); IC50 (HEK293 [5]): 6.72 µM (active); IC50 (HEK293 [6]): 5.37 µM (active)

Q: Which EC50 [7] does the source give for `CCn1c(SCC(=O)N2CCN(c3ccccc3)CC2)nnc1-c1cc2cc(Cl)ccc2o1` here?
A: The EC50 was > 50 µM (not active).

Q: And the IC50 (Coagulation factor XII)?
A: Its IC50 is > 50 µM (inactive).

Q: Which results are given for `COc1ccc(-n2c(/C=C/c3ccc(O)c(O)c3)nc3ccccc3c2=O)cc1`?
A: IC50 [8]: 9.05 µM (active); IC50 [9]: > 100 µM (inactive); IC50 (Large T antigen): 55.9 µM (active); IC50 (Prothrombin): 6.49 µM (active)

Q: For `COc1ccc(-c2cc(C(=O)c3c(N)n(C)c(=O)n(C)c3=O)c3ccccc3n2)cc1OC`, which IC50 (Coagulation factor XII) is on record?
A: Its IC50 is > 50 µM (inactive).

Q: With `O=C(O)c1ccc(CSc2nc(-c3ccc(Cl)cc3)cc(C(F)(F)F)n2)cc1` as the molecule, how does the AC50 [1] read?
A: The AC50 was 5.76 µM (active).

Q: What about the EC50 (Streptokinase A) of the same molecule?
A: Its EC50 is > 150 µM (not active).

Q: What about the EC50 (Streptococcus) of the same molecule?
A: Its EC50 is 11.7 µM (active).

Q: And the EC50 [10]?
A: The EC50 was 4.41 µM (active).

Q: What about the EC50 [11] of the same molecule?
A: Its EC50 is 5.96 µM (active).

Q: Which results are given for `Cc1cc(C)cc(NC(=O)Cn2nnc(C(=O)NCc3ccc4c(c3)OCO4)c2N)c1`?
A: IC50 [8]: 22.9 µM (active); IC50 [9]: > 100 µM (inactive); IC50 (Prothrombin): 72.2 µM (active)

Q: With `c1ccc(-c2nnsc2-c2nc3ccccc3[nH]2)cc1` as the molecule, how does the EC50 [12] read?
A: The EC50 was 83.6 µM (not active).

Q: What about the EC50 [13] of the same molecule?
A: Its EC50 is 10.3 µM (not active).

Q: What about the EC50 [14] of the same molecule?
A: The EC50 was 10.8 µM (inactive).

Q: For `O=C(NCCCn1ccnc1)c1ccc(N2CCCCCC2)c([N+](=O)[O-])c1`, which EC50 [15] is on record?
A: The EC50 was 25.6 µM (active).

Q: What about the EC50 (BJ [16]) of the same molecule?
A: Its EC50 is > 150 µM (not active).

Q: And the EC50 (BJ [17])?
A: The EC50 was 3.55 µM (active).

Q: What about the EC50 (BJ [18]) of the same molecule?
A: Its EC50 is 11.4 µM (active).

Q: What about the AC50 (INS1) of the same molecule?
A: The AC50 was 6.67 µM (active).

Q: And the EC50 (BJ [19])?
A: Its EC50 is 7.97 µM (active).
